Source: patent US20100104546A1, “MODULATORS OF ANTIGEN-DEPENDENT T CELL PROLIFERATION” (CHILDREN, YOUTH AND WOMEN'S HEALTH SERVICE, priority 2007, published 2010)

System: human lymphocytes
Experiment: Human lymphocyte proliferation assay, mitogen (PHA)-induced
Assay type: cell-based
Settings: PHA-stimulated human lymphocytes, in vitro; read-out: IC50 for the PHA-stimulated response

In the case of `CC/C=C\C/C=C\C/C=C\CCCCCCCCOCC(=O)O` [β-oxa-21:3n-3], the IC50 is reported as 30 µM.
